Measurements reported in publication PMC7312539, “Homology Modeling of the Human P-glycoprotein (ABCB1) and Insights into Ligand Binding through Molecular Docking Studies” (International Journal of Molecular Sciences, 2020).

Target: efflux pump P-gp (Homo sapiens, UniProt P08183)
Conditions: Figure 11; for Effect on the rate of excretion of rhodamine 123 (R123) out of Caco-2 cells / interaction with P-gp: Caco-2 cells loaded with 10 μM R123, compared to control DMSO
Description: Results are expressed as percentage compared to the rate of excretion of R123 in the absence of drug (i.e control DMSO). Error bars: SD; verapamil: positive control; diazepam: negative control.
Shortly, Caco-2 cells were washed with HEPES-buffered Ringer’s (RH) solution (NaCl 150 mM, KCl 5.2 mM, CaCl2 2.2 mM, MgCl2 0.2 mM, NaHCO3 6 mM, Glucose 2.8 mM, HEPES 5 mM, water for injection), pH = 7.4 and incubated for 120 min with 10 μM R123. After incubation, cells were washed with RH and incubated with test compounds for one hour during which the rate out (Kout) of R123 (λex = 485 nm and λem = 538 nm) was monitored every 2 minutes with a microplate fluorescence reader (Fluoroskan Ascent FL, Thermo Labsystems, Issy-Les-Moulineaux, France) at 37 °C, after which the cell viability was assessed using MTT cytotoxicity assay kit. Rhodamine Kout was calculated as the slope of the curve of the cumulative R123 fluorescence against the time. Verapamil was used as a positive control and diazepam as negative control.

Chain of efflux pump P-gp (P08183 whole entry): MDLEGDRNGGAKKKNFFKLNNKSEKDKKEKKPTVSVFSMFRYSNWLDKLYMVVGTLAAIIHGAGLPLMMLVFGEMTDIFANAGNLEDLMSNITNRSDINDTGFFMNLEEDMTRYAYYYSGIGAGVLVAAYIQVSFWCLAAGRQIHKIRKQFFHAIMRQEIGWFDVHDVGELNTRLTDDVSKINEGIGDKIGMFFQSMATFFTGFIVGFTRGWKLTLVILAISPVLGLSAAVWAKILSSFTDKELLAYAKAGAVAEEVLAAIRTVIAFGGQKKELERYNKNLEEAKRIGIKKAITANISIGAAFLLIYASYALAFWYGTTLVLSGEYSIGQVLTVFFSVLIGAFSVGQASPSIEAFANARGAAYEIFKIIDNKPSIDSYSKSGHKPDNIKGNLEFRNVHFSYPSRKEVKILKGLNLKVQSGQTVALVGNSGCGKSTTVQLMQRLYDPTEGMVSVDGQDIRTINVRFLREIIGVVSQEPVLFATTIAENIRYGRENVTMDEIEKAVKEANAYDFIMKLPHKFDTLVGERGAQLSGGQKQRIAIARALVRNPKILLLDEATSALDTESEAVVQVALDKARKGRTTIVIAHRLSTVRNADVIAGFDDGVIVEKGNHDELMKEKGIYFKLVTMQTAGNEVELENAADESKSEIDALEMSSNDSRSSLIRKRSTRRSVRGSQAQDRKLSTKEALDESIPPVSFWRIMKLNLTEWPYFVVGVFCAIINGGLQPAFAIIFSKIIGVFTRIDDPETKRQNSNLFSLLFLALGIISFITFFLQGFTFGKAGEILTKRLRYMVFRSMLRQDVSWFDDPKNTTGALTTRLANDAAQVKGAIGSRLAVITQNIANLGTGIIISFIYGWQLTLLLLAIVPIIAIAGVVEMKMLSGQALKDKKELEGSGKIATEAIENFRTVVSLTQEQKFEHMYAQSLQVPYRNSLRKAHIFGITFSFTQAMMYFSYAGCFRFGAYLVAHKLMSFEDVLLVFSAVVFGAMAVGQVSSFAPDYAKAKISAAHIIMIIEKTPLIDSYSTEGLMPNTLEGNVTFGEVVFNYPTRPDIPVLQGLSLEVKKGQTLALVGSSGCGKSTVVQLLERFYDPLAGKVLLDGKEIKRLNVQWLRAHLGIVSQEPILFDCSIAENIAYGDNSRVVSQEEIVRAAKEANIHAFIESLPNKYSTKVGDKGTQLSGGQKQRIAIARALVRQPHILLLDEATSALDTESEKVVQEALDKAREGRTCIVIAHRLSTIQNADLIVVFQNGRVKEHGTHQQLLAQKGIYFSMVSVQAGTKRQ

Compound	Effect on the rate of excretion of rhodamine 123 (R123) out of Caco-2 cells / interaction with P-gp	Interference with the P-gp mediated efflux of R123 out of Caco-2 cells (compound at 50 µM, Caco-2 cells)
CCCC(CCC)C(=O)O [VPA, valproic acid]	not transported by P-gp	–
CS(=O)(=O)OCCCCOS(C)(=O)=O [BU, busulfan]	not transported by P-gp	–
C[n+]1ccc(-c2cc[n+](C)cc2)cc1 [PQ, paraquat]	–	do not interfere
NCCC(O)(P(=O)(O)O)P(=O)(O)O [APD, pamidronate]	did not show any interaction	–
